Measurements as given in patent US12146004B2, “Polymyxin compounds and uses thereof” (priority 2014, dated 2024).
In brackets after ≈: the same amount, converted by molar mass. Numbered stars: 1 amine (or outer) side, 2 acyl side, 3 side chain; on linkers, the order of the positions; unused ones are H or OH. Bridge positions count the residues as written; N and C are the ends. Square brackets hold non-standard residues; d marks the D form. Peptide text beside a SMILES is read from it. * marks the point of attachment. ξ: configuration not given here. X5 = CCCCCCCCc1ccc(C[C@@H](N[*:1])C(=O)[*:2])cc1; dPhe(4-CN) = N#Cc1ccc(C[C@@H](N)C(=O)O)cc1; X17 = CCCCCCN([C@@H](CCN)C(=O)[*:2])[*:1]; ξHexahydromandeloyl = O=C(C(O)C1CCCCC1)*; Octanoyl(6-Me) = CCC(C)CCCCC(=O)*; X23 = NCC[C@H](OCc1ccccc1)C(=O)*; dCha = N[C@H](CC1CCCCC1)C(=O)O; Thr(3ξ) = CC(O)[C@H](N)C(=O)O; X25 = CCCCO[C@@H](CCN)C(=O)*; X4 = CC(C)CC1CNCC(C(=O)*)C1; X21 = NCC(CC1CCCCC1)C(=O)*; Dab = NCC[C@H](N)C(=O)O; Dap = NC[C@H](N)C(=O)O; X18 = CCCCC(CCN)C(=O)*

What was measured:
Assay type in all cases: cell-based
Acinetobacter baumannii = system: Acinetobacter baumannii
In short: (§1)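 Strain panels of up to nine per species, with resistant and Polymyxin-tolerant strains included, were used for susceptibility testing; read-out was MIC (μg/mL).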

Escherichia coli = system: Escherichia coli
In short: as §1

Klebsiella pneumoniae = system: Klebsiella pneumoniae
In short: as §1

Pseudomonas aeruginosa = system: Pseudomonas aeruginosa
In short: as §1

Row | SMILES | MIC A. baumanii ATCC BAA-747 (Acinetobacter baumannii) [µg/mL] | MIC A. baumanii NCTC 13424 (Acinetobacter baumannii) [µg/mL] | MIC E. coli 058 (Escherichia coli) [µg/mL] | MIC E. coli ATCC 25922 (Escherichia coli) [µg/mL] | MIC K. pneumoniae 065 (Klebsiella pneumoniae) [µg/mL] | MIC K. pneumoniae ATCC 13882 (Klebsiella pneumoniae) [µg/mL] | MIC P. aeruginosa ATCC 27853 (Pseudomonas aeruginosa) [µg/mL] | MIC P. aeruginosa CCUG 59347 (Pseudomonas aeruginosa) [µg/mL] | MIC A. baumanii 053 (Acinetobacter baumannii) [µg/mL] | MIC A. baumanii 056 (Acinetobacter baumannii) [µg/mL] | MIC E. coli 061 (Escherichia coli) [µg/mL] | MIC K. pneumoniae 063 (Klebsiella pneumoniae) [µg/mL] | MIC P. aeruginosa 068 (Pseudomonas aeruginosa) [µg/mL] | MIC P. aeruginosa 070 (Pseudomonas aeruginosa) [µg/mL] | MIC E. coli NCTC 9001 (Escherichia coli) [µg/mL] | other results
1 | CCCCCCCCc1ccc(C[C@H]2NC(=O)[C@H](CCN)NC(=O)[C@@H](NC(=O)[C@H](CN)NC(=O)[C@@H](NC(=O)C3CNCC(CC(C)C)C3)C(C)O)CCNC(=O)[C@H]([C@@H](C)O)NC(=O)[C@H](CCN)NC(=O)[C@H](CCN)NC(=O)[C@H](CC(C)C)NC2=O)cc1 (stereo partly shown) [Example 23] (X4-[Thr(3ξ)][Dap][Dab][Dab][X5]L[Dab][Dab]T; lactam 3-C) | 2 (≈ 1.63 µM) |  | 2 (≈ 1.63 µM) | 2 (≈ 1.63 µM) | 2 (≈ 1.63 µM) |  | 2 (≈ 1.63 µM) |  | 2 (≈ 1.63 µM) | 1 (≈ 0.814 µM) | 2 (≈ 1.63 µM) | 8 (≈ 6.51 µM) | 4 (≈ 3.26 µM) | 4 (≈ 3.26 µM) |  | MIC E. coli 059 (Escherichia coli): 2 µg/mL (≈ 1.63 µM); MIC E. coli 060 (Escherichia coli): 2 µg/mL (≈ 1.63 µM); MIC K. pneumoniae 062 (Klebsiella pneumoniae): 4 µg/mL (≈ 3.26 µM); MIC K. pneumoniae 064 (Klebsiella pneumoniae): 4 µg/mL (≈ 3.26 µM); MIC K. pneumoniae 066 (Klebsiella pneumoniae): 2 µg/mL (≈ 1.63 µM); MIC K. pneumoniae 067 (Klebsiella pneumoniae): 4 µg/mL (≈ 3.26 µM); MIC K. pneumoniae ATCC 4352 (Klebsiella pneumoniae): 1 µg/mL (≈ 0.814 µM)
2 | CCC(C)CCCCC(=O)N[C@@H](CCN)C(=O)N[C@H](C(=O)N[C@@H](CCN)C(=O)N[C@H]1CCNC(=O)[C@H]([C@@H](C)O)NC(=O)[C@H](CCN)NC(=O)[C@H](CCN)NC(=O)[C@H](CC(C)C)NC(=O)[C@@H](Cc2ccc(C#N)cc2)NC(=O)[C@H](CCN)NC1=O)C(C)O (stereo partly drawn) [Example 24, Polymyxin B[D-(4-cyano)Phe]-6] ({Octanoyl(6-Me)}-[Dab][Thr(3ξ)][Dab][Dab][Dab][dPhe(4-CN)]L[Dab][Dab]T; lactam 4-C) | 0.25 (≈ 0.203 µM) | 0.25 (≈ 0.203 µM) | 4 (≈ 3.26 µM) | 0.125 (≈ 0.102 µM) | 8 (≈ 6.51 µM) |  | 0.25 (≈ 0.203 µM) | 0.5 (≈ 0.407 µM) | >64 | >64 | 16 (≈ 13 µM) | 64 (≈ 52.1 µM) | 32 (≈ 26 µM) | >64 |  | MIC K. pneumoniae ATCC 4352 (Klebsiella pneumoniae): 0.125 µg/mL (≈ 0.102 µM)
3 | CCCCCCCCc1ccc(C[C@H]2NC(=O)[C@H](CCN)NC(=O)[C@@H](NC(=O)[C@H](CN)NC(=O)[C@@H](NC(=O)[C@@H](N)CCN)C(C)O)CCNC(=O)[C@H]([C@@H](C)O)NC(=O)[C@H](CCN)NC(=O)[C@H](CCN)NC(=O)[C@H](CC(C)C)NC2=O)cc1 (stereo partly drawn) [Example 29, L-Dab-L-Thr-L-Dap-polymyxin [D-(4-octyl Phe)]-6 heptapeptide] (H-[Dab][Thr(3ξ)][Dap][Dab][Dab][X5]L[Dab][Dab]T; lactam 4-C) | 4 (≈ 3.44 µM) | 4 (≈ 3.44 µM) | 32 (≈ 27.6 µM) | 2 (≈ 1.72 µM) | >64 |  | 4 (≈ 3.44 µM) | 8 (≈ 6.89 µM) |  |  |  |  |  |  |  | 
4 | CCCCO[C@@H](CCN)C(=O)N[C@H](C(=O)N[C@@H](CN)C(=O)N[C@H]1CCNC(=O)[C@H]([C@@H](C)O)NC(=O)[C@H](CCN)NC(=O)[C@H](CCN)NC(=O)[C@H](CC(C)C)NC(=O)[C@@H](CC2CCCCC2)NC(=O)[C@H](CCN)NC1=O)C(C)O (stereo partly drawn) [Example 46, (S)-4-amino-2-butoxybutanoyl L-Thr-L-Dap-polymyxin [D-cyclohexylalanine]-6 heptapeptide.] (X25-[Thr(3ξ)][Dap][Dab][Dab][dCha]L[Dab][Dab]T; lactam 3-C) | 0.125 (≈ 0.112 µM) | 0.125 (≈ 0.112 µM) | 8 (≈ 7.19 µM) | 0.125 (≈ 0.112 µM) | 2 (≈ 1.8 µM) | 0.25 (≈ 0.225 µM) | 0.5 (≈ 0.449 µM) | 0.5 (≈ 0.449 µM) | >64 | >64 |  | >64 | 16 (≈ 14.4 µM) | 32 (≈ 28.8 µM) |  | 
5 | CC(C)C[C@@H]1NC(=O)[C@@H](CC2CCCCC2)NC(=O)[C@H](CCN)NC(=O)[C@@H](NC(=O)[C@H](CN)NC(=O)[C@@H](NC(=O)[C@H](CCN)OCc2ccccc2)C(C)O)CCNC(=O)[C@H]([C@@H](C)O)NC(=O)[C@H](CCN)NC(=O)[C@H](CCN)NC1=O (stereo partly drawn) [Example 48, (S)-4-amino-2-(benzyloxy) butanoyl L-Thr-L-Dap-polymyxin [D-cyclohexylalanine]-6 heptapeptide.] (X23-[Thr(3ξ)][Dap][Dab][Dab][dCha]L[Dab][Dab]T; lactam 3-C) | 0.125 (≈ 0.109 µM) | 0.25 (≈ 0.218 µM) | 4 (≈ 3.49 µM) | 0.125 (≈ 0.109 µM) | 5 (≈ 4.36 µM) | 0.125 (≈ 0.109 µM) | 0.25 (≈ 0.218 µM) | 0.25 (≈ 0.218 µM) | >64 | 32 (≈ 27.9 µM) | 32 (≈ 27.9 µM) | 64 (≈ 55.8 µM) | 8 (≈ 6.98 µM) | 16 (≈ 14 µM) |  | 

Further lines, with some results ahead:

Row | MIC A. baumanii ATCC BAA-747 (Acinetobacter baumannii) [µg/mL] | MIC A. baumanii NCTC 13424 (Acinetobacter baumannii) [µg/mL] | MIC E. coli 058 (Escherichia coli) [µg/mL] | MIC E. coli ATCC 25922 (Escherichia coli) [µg/mL] | MIC K. pneumoniae 065 (Klebsiella pneumoniae) [µg/mL] | MIC K. pneumoniae ATCC 13882 (Klebsiella pneumoniae) [µg/mL] | MIC P. aeruginosa ATCC 27853 (Pseudomonas aeruginosa) [µg/mL] | MIC P. aeruginosa CCUG 59347 (Pseudomonas aeruginosa) [µg/mL] | MIC A. baumanii 053 (Acinetobacter baumannii) [µg/mL] | MIC A. baumanii 056 (Acinetobacter baumannii) [µg/mL] | MIC E. coli 061 (Escherichia coli) [µg/mL] | MIC K. pneumoniae 063 (Klebsiella pneumoniae) [µg/mL] | MIC P. aeruginosa 068 (Pseudomonas aeruginosa) [µg/mL] | MIC P. aeruginosa 070 (Pseudomonas aeruginosa) [µg/mL] | MIC E. coli NCTC 9001 (Escherichia coli) [µg/mL] | SMILES | other results
6 | 0.125 (≈ 0.11 µM) | 0.125 (≈ 0.11 µM) | 4 (≈ 3.51 µM) | 0.06 (≈ 0.0527 µM) | 8 (≈ 7.03 µM) | 0.25 (≈ 0.22 µM) | 0.25 (≈ 0.22 µM) | 1 (≈ 0.878 µM) |  |  |  |  |  |  |  | CCC(CC)CC(CCN)C(=O)N[C@H](C(=O)N[C@@H](CCN)C(=O)N[C@H]1CCNC(=O)[C@H]([C@@H](C)O)NC(=O)[C@H](CCN)NC(=O)[C@H](CCN)NC(=O)[C@H](CC(C)C)NC(=O)[C@@H](CC2CCCCC2)NC(=O)[C@H](CCN)NC1=O)[C@@H](C)O (single isomer, unassigned; isomer 2) [Example 92, 2-(2-aminoethyl)-4-ethylhexanoyl polymyxin [D-cyclohexylalanine]-6 nonapeptide. Isomer 2] | 
7 | 0.25 (≈ 0.223 µM) | 0.5 (≈ 0.445 µM) | 2 (≈ 1.78 µM) | 0.5 (≈ 0.445 µM) | 1 (≈ 0.891 µM) | 0.5 (≈ 0.445 µM) | 0.5 (≈ 0.445 µM) | 1 (≈ 0.891 µM) | 32 (≈ 28.5 µM) | 16 (≈ 14.3 µM) | 16 (≈ 14.3 µM) | 16 (≈ 14.3 µM) | 2 (≈ 1.78 µM) | 2 (≈ 1.78 µM) |  | CC(C)C[C@@H]1NC(=O)[C@@H](CC2CCCCC2)NC(=O)[C@H](CCN)NC(=O)[C@@H](NC(=O)[C@H](CN)NC(=O)[C@@H](NC(=O)C(CN)CC2CCCCC2)C(C)O)CCNC(=O)[C@H]([C@@H](C)O)NC(=O)[C@H](CCN)NC(=O)[C@H](CCN)NC1=O (stereo partly drawn) [Example 31, 3-amino-2-(cyclohexylmethyl) propanoyl L-Thr-L-Dap-polymyxin [D-cyclohexylalanine]-6 heptapeptide] (X21-[Thr(3ξ)][Dap][Dab][Dab][dCha]L[Dab][Dab]T; lactam 3-C) | 
8 | 0.125 (≈ 0.103 µM) | 0.5 (≈ 0.413 µM) | 8 (≈ 6.61 µM) | 0.06 (≈ 0.0496 µM) | 16 (≈ 13.2 µM) | 0.25 (≈ 0.207 µM) | 0.5 (≈ 0.413 µM) | 0.5 (≈ 0.413 µM) |  |  |  |  |  |  | 0.06 (≈ 0.0496 µM) | CC(C)C[C@@H]1NC(=O)[C@@H](CC2CCCCC2)NC(=O)[C@H](CCN)NC(=O)[C@@H](NC(=O)[C@H](CCN)NC(=O)[C@@H](NC(=O)[C@H](CCN)NC(=O)C(O)C2CCCCC2)C(C)O)CCNC(=O)[C@H]([C@@H](C)O)NC(=O)[C@H](CCN)NC(=O)[C@H](CCN)NC1=O (stereo partly shown) [Example 37] (ξHexahydromandeloyl-[Dab][Thr(3ξ)][Dab][Dab][Dab][dCha]L[Dab][Dab]T; lactam 4-C) | 
9 | 0.06 (≈ 0.054 µM) | 0.125 (≈ 0.113 µM) | 8 (≈ 7.2 µM) | 0.125 (≈ 0.113 µM) | 2 (≈ 1.8 µM) | 0.25 (≈ 0.225 µM) | 0.5 (≈ 0.45 µM) | 0.5 (≈ 0.45 µM) | >64 | 64 (≈ 57.6 µM) | 16 (≈ 14.4 µM) | 16 (≈ 14.4 µM) | 4 (≈ 3.6 µM) | 8 (≈ 7.2 µM) | 0.03 (≈ 0.027 µM) | CCCCC(CCN)C(=O)N[C@H](C(=O)N[C@@H](CCN)C(=O)N[C@H]1CCNC(=O)[C@H]([C@@H](C)O)NC(=O)[C@H](CCN)NC(=O)[C@H](CCN)NC(=O)[C@H](CC(C)C)NC(=O)[C@@H](CC2CCCCC2)NC(=O)[C@H](CCN)NC1=O)C(C)O (stereo partly drawn) [Example 40, 2-(2-aminoethyl) hexanoyl [D-cyclohexylalanine]-6 nonapeptide.] (X18-[Thr(3ξ)][Dab][Dab][Dab][dCha]L[Dab][Dab]T; lactam 3-C) | 
10 | 0.5 (≈ 0.439 µM) | 0.25 (≈ 0.219 µM) | 2 (≈ 1.76 µM) | 0.5 (≈ 0.439 µM) | 2 (≈ 1.76 µM) | 0.5 (≈ 0.439 µM) | 0.25 (≈ 0.219 µM) | 0.25 (≈ 0.219 µM) | 64 (≈ 56.2 µM) | 64 (≈ 56.2 µM) | 16 (≈ 14 µM) | 32 (≈ 28.1 µM) | 2 (≈ 1.76 µM) | 2 (≈ 1.76 µM) | 0.125 (≈ 0.11 µM) | CCCCCCN[C@@H](CCN)C(=O)N[C@H](C(=O)N[C@@H](CN)C(=O)N[C@H]1CCNC(=O)[C@H]([C@@H](C)O)NC(=O)[C@H](CCN)NC(=O)[C@H](CCN)NC(=O)[C@H](CC(C)C)NC(=O)[C@@H](CC2CCCCC2)NC(=O)[C@H](CCN)NC1=O)C(C)O (stereo partly drawn) [Example 49, (S)-4-amino-2-(hexylamino) butanoyl L-Thr-L-Dap-polymyxin [D-cyclohexylalanine]-6 heptapeptide.] (H-[X17][Thr(3ξ)][Dap][Dab][Dab][dCha]L[Dab][Dab]T; lactam 4-C) | 
